In patent US12673915B2, “Precursor compound of hexahydro-beta-acid component compound, feed composition and use thereof” (WISORIG TECHNOLOGIES PTE. LIMITED, priority 2020, dated 2026):

How the values were obtained:
Type in all cases: physicochemical
[1] = Long-term stability in feeds at room temperature (25° C.±2° C., RH 60%±10%; HPLC)
From the text: Feeds: ZUSF's premixed feed (A mixture of crushed Feed A and crushed Feed B at a weight ratio of 2:1, wherein Feed A was a 5.33% multi-premixed feed for piglets from ZUSF's Hao-Ru-Zhen-Jing, and B was a 2.67% multi-premixed feed for piglets from ZUSF's Hao-Ru-Zhen-Jing); creep feed for piglets from CP FEED; INSIGHTER's feed for broiler; 4% premixed feed from GUANGDONG CO-POWER.
Preparation of a sample of 1% premix of Ingredient: 1 g of an ingredient was respectively weighed out and evenly mixed with 99 g of corncob meal in a mixer to give a sample of 1% premix of an ingredient.
Preparation of a sample of 500 ppm feed of an ingredient: The sample of 1% premix of an ingredient was diluted step by step using the ZUSF's remixed feed to 5000 ppm and 500 ppm to give the sample of 500 ppm feed of an ingredient for later testing.
Preparation of a sample of 100 ppm feed of an ingredient: sample of 1% premix of an ingredient was diluted step by step using the creep feed for piglets from CP FEED to 1000 ppm and then 100 ppm to give the sample of 100 ppm feed of an ingredient for later testing.
Preparation of a sample of 100 ppm feed of an ingredient: The sample of 1% premix of an ingredient was diluted step by step using the INSIGHTER's feed for broiler to 1000 ppm and 100 ppm to give the sample of 100 ppm feed of an ingredient for later testing.
Preparation of a sample of 2000 ppm feed of an ingredient: The sample of 1% premix of an ingredient was diluted step by step using the 4% premixed feed from GUANGDONG CO-POWER to 5000 ppm and 2000 ppm to give the sample of 2000 ppm feed of an ingredient for later testing.
Method: Three replications of each feed sample were tested at the condition of 25° C.±2° C. and RH 60%±10%, wherein the replications of each feed sample were sampled in parallel for HPLC analysis on day 5, day 10, day 15, day 30, day 60, and day 90.
25.0 mg of an ingredient was accurately weighed out and dissolved in an appropriate amount of methanol or n-hexane by ultrasonication. The solution was then transferred to a volumetric flask and diluted to 50 mL to give a 500 ppm (by wt.) stock solution. The samples from the stock solution were diluted with methanol or n-hexane respectively to a concentration of 10 ppm, 25 ppm, 50 ppm, 100 ppm, and 250 ppm of work solution, and then the working solutions were filtered by 0.22 μm organic membranes. Between the concentration of a sample and the response value of HPLC peak area thereof, the linearity was adjusted and detected to give a standard curve.
5.0000 g of the samples sampled at different time intervals were respectively accurately weighed out, and dissolved in 25 mL of methanol or n-hexane by ultrasonication for 10 minutes. The resulting solutions were filtered by organic membranes and then analyzed by HPLC.
• Equipment: Waters e2695 with PDA detector. • Mobile phase: 0.02% phosphoric acid:methanol=5:95 (v:v). • Column: Symmetry Cis column (Waters; 250 mm×4.6 mm, 5 μm). • Wavelength: 235 nm. • Temperature of the Column: 25° C. • Injection volume: 10 μL. • Flow rate: 1 mL/min. Normal Phase Chromatography: • Equipment: Shimadzu LC-14C/SPD-15C. • Column: SuperSil NH2 column ([…]; 250 mm×4.6 mm). • Mobile phase: n-hexane:isopropanol=60:40 (v:v). • Wavelength: 235 nm. • Temperature of the Column: 25° C. • Injection volume: 20 μL. • Flow rate: 1 mL/min. 3: Results

[2] = Photostability testing under illumination of 4500 Lx of ingredient and 1% premix (HPLC); conditions: 4500 Lx
From the text: (§1) Preparation of a sample of 1% premix of an ingredient: 1 g of an ingredient was respectively weighed out and evenly mixed with 99 g of corncob meal in a mixer to give a sample of 1% premix of an ingredient for testing.
Photostability testing: The samples of an ingredient and 1% premix thereof were respectively spread in petri dishes to form thin layers of <5 mm, and kept under an illumination of 4500 Lx. Three replications for a sample were sampled in parallel on day 5 and day 10 for HPLC analysis.
(§2) 25.0 mg of an ingredient was accurately weighed out and dissolved in an appropriate amount of methanol by ultrasonication. The solution was then transferred to a volumetric flask and diluted to 25 mL with methanol to give a stock solution. The samples from the stock solution were diluted with methanol respectively to a concentration of 100 ppm, 500 ppm, and 1000 ppm of work solution, and then the working solutions were filtered by 0.22 μm organic membranes. Between the concentration of a sample and the response value of HPLC peak area thereof, the linearity was adjusted and detected to give a standard curve.
(§3) 2.3: Preparation of Sample Solution 25.0 mg of an ingredient and 2.0000 g of a sample of 1% premix thereof were respectively accurately weighed out, and dissolved in 25 mL of methanol by ultrasonication for 10 minutes. The resulting solutions were filtered by organic membranes and then analyzed by HPLC. 2.4: Testing Conditions for HPLC • Column: Symmetry Cis column (Waters; 250 mm*4.6 mm, 5 μm). • Mobile phase: 0.02% phosphoric acid:methanol=5:95 (v:v). • Wavelength: 235 nm. • Temperature of the Column: 25° C. • Injection volume: 10 μL. • Flow rate: 1 mL/min. 3: Results

[3] = Thermal stability testing at 60° C. of ingredient and 1% premix (HPLC)
Description: as §1
Thermal stability testing at 60° C.: The samples of an ingredient and 1% premix thereof were respectively spread in petri dishes to form thin layers of <5 mm, and kept at 60° C. Two replications for a sample were taken in parallel on day 5 and day 10 for HPLC analysis.
as §2, §3

[4] = 1% Premix of an ingredient (corncob meal), Day 5
[5] = 1% Premix of an ingredient (corncob meal), Day 10

CCC(=O)OC1=C(CCC(C)C)C(=O)C(CCC(C)C)(CCC(C)C)C(O)=C1C(=O)C(C)C [hexahydro-colupulone mono-propionate]
Residual amount of active ingredient ([1]; 100 ppm in INSIGHTER's broiler feed, Day 5): 99.45% | Residual amount of active ingredient ([1]; 100 ppm in INSIGHTER's broiler feed, Day 15): 99.37% | Residual amount of active ingredient ([1]; 100 ppm in INSIGHTER's broiler feed, Day 30): 99.19% | Residual amount of active ingredient ([1]; 100 ppm in INSIGHTER's broiler feed, Day 60): 99.72% | Residual amount of active ingredient ([1]; 100 ppm in creep feed for piglets from CP FEED, Day 5): 100.54% | Residual amount of active ingredient ([1]; 100 ppm in creep feed for piglets from CP FEED, Day 15): 100.97% | Residual amount of active ingredient ([1]; 100 ppm in creep feed for piglets from CP FEED, Day 30): 97.62% | Residual amount of active ingredient ([1]; 100 ppm in creep feed for piglets from CP FEED, Day 60): 98.08% | Residual amount of active ingredient ([1]; 100 ppm in creep feed for piglets from CP FEED, Day 90): 96.99% | Residual amount of active ingredient ([1]; 500 ppm in ZUSF's premixed feed, Day 5): 98.36% | Residual amount of active ingredient ([1]; 500 ppm in ZUSF's premixed feed, Day 15): 96.77% | Residual amount of active ingredient ([1]; 500 ppm in ZUSF's premixed feed, Day 30): 94.17% | Residual amount of active ingredient ([1]; 500 ppm in ZUSF's premixed feed, Day 60): 95.88% | Residual amount of active ingredient ([1]; 500 ppm in ZUSF's premixed feed, Day 90): 95.73% | Residual amount of active ingredient ([1]; 2000 ppm in 4% premixed feed from GUANGDONG CO-POWER, Day 5): 97.48% | Residual amount of active ingredient ([1]; 2000 ppm in 4% premixed feed from GUANGDONG CO-POWER, Day 15): 96.12% | Residual amount of active ingredient ([1]; 2000 ppm in 4% premixed feed from GUANGDONG CO-POWER, Day 30): 96.28% | Residual amount of active ingredient ([1]; 2000 ppm in 4% premixed feed from GUANGDONG CO-POWER, Day 60): 95.87% | Residual amount of active ingredient ([1]; 2000 ppm in 4% premixed feed from GUANGDONG CO-POWER, Day 90): 95.90% | Residual amount of active ingredient [2, 4]: 98.87% | Residual amount of active ingredient [2, 5]: 98.10% | Residual amount of active ingredient ([2]; Ingredient, Day 5): 98.90% | Residual amount of active ingredient ([2]; Ingredient, Day 10): 98.70% | Residual amount of active ingredient [3, 4]: 98.27% | Residual amount of active ingredient [3, 5]: 97.91% | Residual amount of active ingredient ([3]; Ingredient, Day 5): 99.40% | Residual amount of active ingredient ([3]; Ingredient, Day 10): 99.26%
